Assay results as given in patent US20220110882A1, “SYNTHETICALLY LETHAL NANOPARTICLES FOR TREATMENT OF CANCERS” (UNIVERSITY OF IOWA RESEARCH FOUNDATION, priority 2017, published 2022).

Legend:
Hec50co cells [1] = assay: BIBFs effect on NPs uptake using flow cytometry; type: cell-based, human; conditions: 1 μM BIBFs, 6 h, serum containing media
Experimental: (§1) BIBFs effect on NPs uptake using flow cytometry. The effect of BIBFs on the uptake of different RHDp against Hec50co cells and GOF Hec50co cells was tested. Both cell lines were plated at a seeding density of 10^5 cell/well in 12 well plate, and then the experiment was carried out as mentioned in section [00125]) with two exceptions: a) RHDp uptake was evaluated in the presence or absence of 1 μM BIBFs, b) the experiment was carried out in serum containing media to mimic the in vivo conditions.

GOF Hec50co cells = assay: BIBFs effect on NPs uptake using flow cytometry; type: cell-based, human; conditions: 1 μM BIBFs, 6 h, serum containing media
Experimental: as §1

Hec50co cells [2] = conditions: 5 mg/kg each IV on days 18, 25, 32
Experimental: In vivo efficacy studies using mouse xenograft model of LOF p53 USC. Female athymic NCI-nu/nu mice (Charles River, Wilmington, Mass.) at the age of 6-8 weeks were challenged subcutaneously with 2×10^6 Hec50co cells in the right flank after isoflurane anesthesia. […] Mice were 5 per group, except the group that received the combination therapy were 7. Treatments were administered TV through retro-orbital injections in the venous sinus on days 18, 25, and 32. The tumor diameters and height were measured using digital caliper. The tumor volumes were calculated from the following formula:
Where D1 is the first tumor diameter (mm), D2 is the second tumor diameter (mm), and H is the tumor height.
Mice weights were monitored during the experiment and mice were euthanized once the tumor diameter exceeded 2 cm or tumor height exceeded 1 cm. Sample sizes for this experiment were estimated based on preliminary data in order to have 80% power to detect significant differences between groups. All animal experiments were not blinded, and were carried out in accordance with guidelines and regulations approved by the University of Iowa Institutional Animal Care and Use Committee.

Compound	increase in fluorescence intensity on addition to RHDp (75/T) (Hec50co cells [1]) [fold]	increase in fluorescence intensity on addition to RHDp (75/T) (GOF Hec50co cells) [fold]	median survival (Hec50co cells [2]) [days]
COC(=O)c1ccc2c(c1)NC(=O)/C2=C(\Nc1ccc(N(C)C(=O)CN2CCN(C)CC2)cc1)c1ccccc1 [BIBFs, BIBF-1120]	1.5	1.5	
CC(=O)O[C@H]1C(=O)[C@@]2(C)[C@H]([C@H](OC(=O)c3ccccc3)[C@]3(O)C[C@H](OC(=O)[C@H](O)[C@@H](NC(=O)c4ccccc4)c4ccccc4)C(C)=C1C3(C)C)[C@]1(OC(C)=O)CO[C@@H]1C[C@@H]2O [PTXs, paclitaxel]			41
